Experimental data taken from PMC10852989, “Combining cisplatin and a STING agonist into one molecule for metalloimmunotherapy of cancer” (National Science Review, 2024).

Assay: reduction by ascorbic acid (AsA) followed by 1H-/195Pt-NMR
Type: physicochemical
Conditions: 20 mM, 8 equiv. AsA, 5:1 d6-DMSO:D2O, 37 °C, dark
Protocol: Reduction of I and II. Samples were prepared by reacting I or II (20 mM) with 8 equiv. AsA in 5:1 d6-DMSO:D2O solutions. The time course of the reaction was monitored by ^1H-NMR and ^195Pt-NMR after incubation of the samples were incubated at 37 °C for 0, 3, 6, 12, 24, 36, 48, 60, 72, 84, 96, or 120 h in the dark.

## COc1cc2cc(C(=O)CCC(=O)[O][Pt]([NH2])([NH2])([OH])([Cl])[Cl])sc2cc1OC [conjugate I]
  time at which reduction by AsA finished: 24 h
